Experimental data taken from patent EP0762893B1, “TREATMENT OF PLASMA” (SUOMEN PUNAINEN RISTI VERIPALVELU, priority 1994, dated 1995).

Experiments:
[1] = system: F VIII; test: Inactivation of F VIII activity during MB photochemical treatment of 2 ml pooled plasma samples (chromogenic substrate assay); type: biochemical; details: 1 µmol/l of MB, TL-M 115/33 fluorescent tubes for 1 h
[2] = system: fibrinogen; test: Inactivation of clottable fibrinogen during MB photochemical treatment of 2 ml pooled plasma samples (thromboplastin time assay); type: biochemical; details: 1 µmol/l of MB, TL-M 115/33 fluorescent tubes for 1 h
[3] = Disappearance of ascorbate and urate from plasma during MB photochemical treatment (HPLC); details: compared with ascorbate

disappearance of urate from plasma [3] | Structure (SMILES) | extent of inactivation of factor VIII [1] [%] | extent of inactivation of fibrinogen [2] | absorbing form of MB after dilution
 | CN(C)c1ccc2nc3ccc(=[N+](C)C)cc-3sc2c1 [MB, methylene blue] | ~40 | about 50% | quantitatively restored
clearly more slowly than ascorbate | O=c1[nH]c(=O)c2[nH]c(=O)[nH]c2[nH]1 [Urate, urate] |  |  | 
